Reference: ChEMBL document CHEMBL5614400, “Emerging therapeutics: The imidazo[1,2-b]pyridazine scaffold as a novel drug candidate for eumycetoma, a neglected tropical disease” (Eur J Med Chem, 2024)
Converted amounts (≈) assume the structure as drawn.

How the values were obtained:
Madurella mycetomatis [1] = assay: Antifungal activity against Madurella mycetomatis MM55 by XTT assay; format: functional, organism-based
Madurella mycetomatis [2] = assay: Antifungal activity against Madurella mycetomatis SO1 by XTT assay; format: functional
Madurella mycetomatis [3] = assay: Antifungal activity against Madurella mycetomatis I1 by XTT assay; format: functional
Madurella mycetomatis [4] = assay: Antifungal activity against Madurella mycetomatis I3 by XTT assay; format: functional
Madurella mycetomatis [5] = assay: Antifungal activity against Madurella mycetomatis I11 by XTT assay; format: functional
Madurella mycetomatis [6] = assay: Antifungal activity against Madurella mycetomatis P1 by XTT assay; format: functional
Madurella mycetomatis [7] = assay: Antifungal activity against Madurella mycetomatis Peru72012 by XTT assay; format: functional
Madurella mycetomatis [8] = assay: Antifungal activity against Madurella mycetomatis AL1 by XTT assay; format: functional
Madurella mycetomatis [9] = assay: Antifungal activity against Madurella mycetomatis CBS247.48 by XTT assay; format: functional
Madurella mycetomatis [10] = assay: Antifungal activity against Madurella mycetomatis MM50 by XTT assay; format: functional
[11] = Cytotoxicity against mouse NIH3T3 cells incubated for 5 days by MTT assay; format: toxicity, cell-based
[12] = Selectivity index, ratio of IC50 for mouse NIH3T3 cells to IC50 for Madurella mycetomatis MM55; format: toxicity; settings: read-out: Ratio IC50

| Structure (SMILES) | MIC (Madurella mycetomatis [1]; Madurella mycetomatis, MM55) [µM] | MIC (Madurella mycetomatis [2]) [µM] | MIC (Madurella mycetomatis [3]) [µM] | MIC (Madurella mycetomatis [4]) [µM] | MIC (Madurella mycetomatis [5]) [µM] | MIC (Madurella mycetomatis [6]) [µM] | MIC (Madurella mycetomatis [7]) [µM] | MIC (Madurella mycetomatis [8]) [µM] | MIC (Madurella mycetomatis [9]) [µM] | MIC (Madurella mycetomatis [10]) [µM] | IC50 (Madurella mycetomatis [1]; Madurella mycetomatis, MM55) [µM] | IC50 (Madurella mycetomatis [1]) [µM] | IC50 at 5 days [11] [µM] | selectivity ratio [12] |
| --- | --- | --- | --- | --- | --- | --- | --- | --- | --- | --- | --- | --- | --- | --- |
| CN1CCN(c2cc(-c3ccsc3)c3nc(-c4ccc(F)cc4)cn3n2)CC1 [listing 1 of 2 here] |  |  |  |  |  |  |  |  |  |  | 5 |  |  |  |
| CN1CCN(c2cc(-c3cnn(C)c3)c3nc(-c4ccc(F)cc4)cn3n2)CC1 [listing 1 of 2 here] |  |  |  |  |  |  |  |  |  |  |  | 9.5 |  |  |
| CC(C)CCn1cc(-c2cc(N3CCN(C)CC3)nn3cc(-c4ccc(F)cc4)nc23)cn1 |  |  |  |  |  |  |  |  |  |  | 10.3 |  |  |  |
| CN1CCN(c2cc(-c3cccc4[nH]ccc34)c3nc(-c4ccccc4)cn3n2)CC1 [listing 1 of 2 here] |  |  |  |  |  |  |  |  |  |  | 8.3 |  |  |  |
| CN1CCN(c2cc(-c3cccc4[nH]ccc34)c3nc(-c4ccccc4F)cn3n2)CC1 |  |  |  |  |  |  |  |  |  |  | 9.2 |  |  |  |
| OCCN1CCN(c2cc(-c3cnc(N4CCN(CCO)CC4)nc3)c3nc(-c4ccccc4F)cn3n2)CC1 | 8 (≈ 4.38 µg/mL) | > 16 | 16 (≈ 8.76 µg/mL) | > 16 | > 16 | > 16 | 16 (≈ 8.76 µg/mL) | > 16 | > 16 | > 16 | 3.8 |  | 1.4 | 0.8 |
| OCCN1CCN(c2cc(-c3ccsc3)c3nc(-c4cccc(F)c4)cn3n2)CC1 | 4 (≈ 1.69 µg/mL) | 8 (≈ 3.39 µg/mL) | 8 (≈ 3.39 µg/mL) | 8 (≈ 3.39 µg/mL) | 4 (≈ 1.69 µg/mL) | 4 (≈ 1.69 µg/mL) | 8 (≈ 3.39 µg/mL) | 8 (≈ 3.39 µg/mL) | 4 (≈ 1.69 µg/mL) | 8 (≈ 3.39 µg/mL) | 0.9 |  | 10.7 | 8.2 |
| COc1ccccc1-c1cn2nc(N3CCN(C)CC3)cc(-c3ccsc3)c2n1 |  |  |  |  |  |  |  |  |  |  | 5.8 |  |  |  |
| OCCN1CCN(c2cc(-c3cccc4[nH]ccc34)c3nc(-c4ccc(F)cc4)cn3n2)CC1 |  |  |  |  |  |  |  |  |  |  | > 16 |  |  |  |
| CN1CCN(c2cc(-c3cccs3)c3nc(-c4ccc(F)cc4)cn3n2)CC1 |  |  |  |  |  |  |  |  |  |  | 8.5 |  |  |  |
| CN1CCN(c2cc(-c3cccc4[nH]ccc34)c3nc(-c4ccc(F)cc4)cn3n2)CC1 [listing 1 of 2 here] |  |  |  |  |  |  |  |  |  |  |  | 10.6 |  |  |
| CN1CCN(c2cc(-c3ccc4cc[nH]c4c3)c3nc(-c4ccc(F)cc4)cn3n2)CC1 |  |  |  |  |  |  |  |  |  |  | 7.1 |  |  |  |
| CN1CCN(c2cc(-c3cnc(N4CCN(C)CC4)nc3)c3nc(-c4ccc(F)cc4)cn3n2)CC1 | 8 (≈ 3.9 µg/mL) | 4 (≈ 1.95 µg/mL) | 4 (≈ 1.95 µg/mL) | 8 (≈ 3.9 µg/mL) | 8 (≈ 3.9 µg/mL) | 4 (≈ 1.95 µg/mL) | 4 (≈ 1.95 µg/mL) | 4 (≈ 1.95 µg/mL) | 4 (≈ 1.95 µg/mL) | 4 (≈ 1.95 µg/mL) | 2.9 |  | 12.3 | 6.8 |
| CN1CCN(c2cc(-c3cnc(N4CCN(C)CC4)nc3)c3nc(-c4ccccc4F)cn3n2)CC1 | 16 (≈ 7.8 µg/mL) | 4 (≈ 1.95 µg/mL) | 4 (≈ 1.95 µg/mL) | 16 (≈ 7.8 µg/mL) | 4 (≈ 1.95 µg/mL) | 4 (≈ 1.95 µg/mL) | 4 (≈ 1.95 µg/mL) | 4 (≈ 1.95 µg/mL) | 4 (≈ 1.95 µg/mL) | 4 (≈ 1.95 µg/mL) | 4 |  | 9.6 | 2 |
| OCCN1CCN(c2cc(-c3ccsc3)c3nc(-c4ccc(F)cc4)cn3n2)CC1 |  |  |  |  |  |  |  |  |  |  | 5.3 |  |  |  |
| CN1CCN(c2cc(-c3ccc(N)nc3)c3nc(-c4ccccc4F)cn3n2)CC1 |  |  |  |  |  |  |  |  |  |  | 9.8 |  |  |  |
| CN1CCN(c2cc(-c3ccsc3)c3nc(-c4ccc(F)cc4)cn3n2)CC1 [listing 2 of 2 here] |  |  |  |  |  |  |  |  |  |  |  | 5.5 |  |  |
| COc1ccccc1-c1cn2nc(N3CCN(C)CC3)cc(-c3cccc4[nH]ccc34)c2n1 |  |  |  |  |  |  |  |  |  |  | > 16 |  |  |  |

Further lines, with some results ahead:

| MIC (Madurella mycetomatis [1]; Madurella mycetomatis, MM55) [µM] | MIC (Madurella mycetomatis [2]) [µM] | MIC (Madurella mycetomatis [3]) [µM] | MIC (Madurella mycetomatis [4]) [µM] | MIC (Madurella mycetomatis [5]) [µM] | MIC (Madurella mycetomatis [6]) [µM] | MIC (Madurella mycetomatis [7]) [µM] | MIC (Madurella mycetomatis [8]) [µM] | MIC (Madurella mycetomatis [9]) [µM] | MIC (Madurella mycetomatis [10]) [µM] | Structure (SMILES) | IC50 (Madurella mycetomatis [1]; Madurella mycetomatis, MM55) [µM] | IC50 (Madurella mycetomatis [1]) [µM] | IC50 at 5 days [11] [µM] | selectivity ratio [12] |
| --- | --- | --- | --- | --- | --- | --- | --- | --- | --- | --- | --- | --- | --- | --- |
| 8 (≈ 3.27 µg/mL) | 16 (≈ 6.54 µg/mL) | 8 (≈ 3.27 µg/mL) | 16 (≈ 6.54 µg/mL) | > 16 | 8 (≈ 3.27 µg/mL) | 8 (≈ 3.27 µg/mL) | 16 (≈ 6.54 µg/mL) | 16 (≈ 6.54 µg/mL) | 16 (≈ 6.54 µg/mL) | CN1CCN(c2cc(-c3cccc4[nH]ccc34)c3nc(-c4ccccc4)cn3n2)CC1 [listing 2 of 2 here] |  | 4.8 | 9.9 | 2.8 |
| 8 (≈ 3 µg/mL) | 8 (≈ 3 µg/mL) | 8 (≈ 3 µg/mL) | 8 (≈ 3 µg/mL) | 4 (≈ 1.5 µg/mL) | 8 (≈ 3 µg/mL) | 8 (≈ 3 µg/mL) | 8 (≈ 3 µg/mL) | 8 (≈ 3 µg/mL) | 8 (≈ 3 µg/mL) | CN1CCN(c2cc(-c3ccsc3)c3nc(-c4ccccc4)cn3n2)CC1 | 3.5 |  | 10.2 | 5.1 |
| 16 (≈ 6.82 µg/mL) | 8 (≈ 3.41 µg/mL) | 4 (≈ 1.71 µg/mL) | 8 (≈ 3.41 µg/mL) | 4 (≈ 1.71 µg/mL) | 8 (≈ 3.41 µg/mL) | 4 (≈ 1.71 µg/mL) | 8 (≈ 3.41 µg/mL) | 4 (≈ 1.71 µg/mL) | 4 (≈ 1.71 µg/mL) | CN1CCN(c2cc(-c3ccc4[nH]ccc4c3)c3nc(-c4ccc(F)cc4)cn3n2)CC1 | 3.4 |  | 9 | 2.6 |
| 2 (≈ 0.939 µg/mL) | 16 (≈ 7.51 µg/mL) | 8 (≈ 3.76 µg/mL) | 8 (≈ 3.76 µg/mL) | 8 (≈ 3.76 µg/mL) | 8 (≈ 3.76 µg/mL) | 8 (≈ 3.76 µg/mL) | 8 (≈ 3.76 µg/mL) | 8 (≈ 3.76 µg/mL) | 8 (≈ 3.76 µg/mL) | CN1CCN(c2cc(-c3cnc(N4CCN(C)CC4)nc3)c3nc(-c4ccccc4)cn3n2)CC1 | 2 |  | 14.3 | 16 |
| > 16 | > 16 | 16 (≈ 6.26 µg/mL) | > 16 | > 16 | 16 (≈ 6.26 µg/mL) | > 16 | > 16 | 16 (≈ 6.26 µg/mL) | > 16 | CN1CCN(c2cc(-c3cnn(C)c3)c3nc(-c4ccc(F)cc4)cn3n2)CC1 [listing 2 of 2 here] |  | 3.8 | 9 | 3.1 |
| 8 (≈ 3.39 µg/mL) | 8 (≈ 3.39 µg/mL) | 8 (≈ 3.39 µg/mL) | 8 (≈ 3.39 µg/mL) | 4 (≈ 1.69 µg/mL) | 8 (≈ 3.39 µg/mL) | 8 (≈ 3.39 µg/mL) | 8 (≈ 3.39 µg/mL) | 8 (≈ 3.39 µg/mL) | 4 (≈ 1.69 µg/mL) | OCCN1CCN(c2cc(-c3ccsc3)c3nc(-c4ccccc4F)cn3n2)CC1 | 1.3 |  | 10.5 | 4 |
| 8 (≈ 3.41 µg/mL) | 16 (≈ 6.82 µg/mL) | 8 (≈ 3.41 µg/mL) | 8 (≈ 3.41 µg/mL) | 8 (≈ 3.41 µg/mL) | 8 (≈ 3.41 µg/mL) | 8 (≈ 3.41 µg/mL) | 8 (≈ 3.41 µg/mL) | 8 (≈ 3.41 µg/mL) | 8 (≈ 3.41 µg/mL) | CN1CCN(c2cc(-c3cccc4[nH]ccc34)c3nc(-c4ccc(F)cc4)cn3n2)CC1 [listing 2 of 2 here] |  | 1.7 | 12.9 | 7.5 |
| 4 (≈ 1.62 µg/mL) | 16 (≈ 6.49 µg/mL) | 8 (≈ 3.24 µg/mL) | 8 (≈ 3.24 µg/mL) | 8 (≈ 3.24 µg/mL) | 8 (≈ 3.24 µg/mL) | 8 (≈ 3.24 µg/mL) | 8 (≈ 3.24 µg/mL) | 8 (≈ 3.24 µg/mL) | 8 (≈ 3.24 µg/mL) | OCCN1CCN(c2cc(-c3ccsc3)c3nc(-c4ccccc4)cn3n2)CC1 | 2.6 |  | 13.1 | 3.4 |
| 8 (≈ 3.15 µg/mL) | 8 (≈ 3.15 µg/mL) | 8 (≈ 3.15 µg/mL) | 8 (≈ 3.15 µg/mL) | 8 (≈ 3.15 µg/mL) | 8 (≈ 3.15 µg/mL) | 16 (≈ 6.3 µg/mL) | 8 (≈ 3.15 µg/mL) | 8 (≈ 3.15 µg/mL) | 8 (≈ 3.15 µg/mL) | CN1CCN(c2cc(-c3ccsc3)c3nc(-c4ccccc4F)cn3n2)CC1 | 1.9 |  | 14.6 | 3.7 |
| 8 (≈ 3.41 µg/mL) | 16 (≈ 6.82 µg/mL) | 16 (≈ 6.82 µg/mL) | 8 (≈ 3.41 µg/mL) | 8 (≈ 3.41 µg/mL) | 8 (≈ 3.41 µg/mL) | 16 (≈ 6.82 µg/mL) | 8 (≈ 3.41 µg/mL) | 8 (≈ 3.41 µg/mL) | 8 (≈ 3.41 µg/mL) | CN1CCN(c2cc(-c3cccc4[nH]ccc34)c3nc(-c4cccc(F)c4)cn3n2)CC1 | 1.8 |  | 10.1 | 4.8 |
